Experimental findings from patent publication US8859574B2 (IRM LLC, priority 2008, dated 2014) are described below.

SMILES strings stand for the structures.

What is called IC50 is the midpoint of a concentration-inhibition curve. A lower IC50 goes with greater potency.

T1 sequence (P08069 999-1274 limits assumed): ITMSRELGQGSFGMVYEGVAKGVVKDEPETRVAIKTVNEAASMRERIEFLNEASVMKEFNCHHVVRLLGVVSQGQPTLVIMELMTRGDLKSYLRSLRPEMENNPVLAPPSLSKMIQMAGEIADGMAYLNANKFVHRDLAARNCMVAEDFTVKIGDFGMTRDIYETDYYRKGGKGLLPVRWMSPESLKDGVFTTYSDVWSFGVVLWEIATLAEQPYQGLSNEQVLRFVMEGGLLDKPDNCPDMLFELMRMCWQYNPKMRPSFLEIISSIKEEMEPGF

This test addresses T1, IGF-1R Ba/F3 (Homo sapiens, UniProt P08069).
T1 construct: fused on or other part: TEL- (or BCR-) IGF-1R in Ba/F3: the kinase part holds the site
The experiment in a line: Ba/F3 Cell Viability Inhibition Assay (IGF-1R Ba/F3). The class given is cell-based, murine. As to conditions: Tel-TK transformed Ba/F3 cells, 48 hours, Britelite luminescence. In short, it runs like this:
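IL-3-independent murine Ba/F3 cells transformed with a TEL/BCR-fused IGF-1R kinase were seeded at 3750 cells/well and exposed to serially diluted compound for 48 h at 37 °C. Viability was read by Britelite luminescence. IC50 is the concentration giving 50% of DMSO-control viability, from a logistic fit.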
On to `COc1cc(Nc2ncc(Cl)c(Nc3cc(C)[nH]n3)n2)c(C)cc1C1CCN(CC(N)=O)CC1` [Compound 262, 2-(4-(4-(5-chloro-4-(5-methyl-1H-pyrazol-3-ylamino)pyrimidin-2-ylamino)-2-methoxy-5-methylphenyl)piperidin-1-yl)acetamide], for which the midpoint of inhibition, the IC50, lay at 19 nM.

For `Cc1cc(Nc2nc(Nc3cc(C)c(C4CCN(C(=O)c5c(C)noc5C)CC4)cc3F)ncc2Cl)n[nH]1` [Compound 137, (4-(4-(5-chloro-4-(5-methyl-1H-pyrazol-3-ylamino)pyrimidin-2-ylamino)-5-fluoro-2-methylphenyl)piperidin-dimethylisoxazol-4-yl)methanone], half-maximal inhibition (IC50) was put at 18 nM.

`Cc1cc(Nc2nc(Nc3cc(C(F)(F)F)c(N4CCN(C)CC4)cc3F)ncc2Cl)n[nH]1` [Compound 157, 5-chloro-N^2-(2-fluoro-4-(4-methylpiperazin-1-yl)-5-(trifluoromethyl)phenyl)-N^4-(5-methyl-1H-pyrazol-3-yl)pyrimidine-2,4-diamine] showed an IC50 of 75 nM.

For the molecule `Cc1cc(Nc2nc(Nc3cc(C)c(C4CCN(C5=CC(=O)CC5)CC4)cc3F)ncc2Cl)n[nH]1` [Compound 282, 3-(4-(4-(5-Chloro-4-(5-methyl-1H-pyrazol-3-ylamino)pyrimidin-2-ylamino)-5-fluoro-2-methylphenyl)piperidin-1-yl)cyclopent-2-en-one], the IC50 came out at 48 nM.

As for `Cc1cc(C2CCN(CC(N)=O)CC2)c(C)cc1Nc1ncc(Cl)c(Nc2cc(C3CC3)[nH]n2)n1` [Compound 35, 2-(4-(4-(5-chloro-4-(5-cyclopropyl-1H-pyrazol-3-ylamino)pyrimidin-2-ylamino)-2,5-dimethylphenyl)piperidin-1-yl)acetamide], the half-inhibitory concentration (IC50) turned out to be 11 nM.

For `Cc1cc(Nc2nc(Nc3cc(C)c(C4CCN([C@H]5CC[C@@H](O)CC5)CC4)cc3F)ncc2Cl)n[nH]1` [Compound 311, Cis-4-(4-(4-(5-chloro-4-(5-methyl-1H-pyrazol-3-ylamino)pyrimidin-2-ylamino)-5-fluoro-2-methylphenyl)piperidin-1-yl)cyclohexanol], inhibition was half-maximal at 21 nM (IC50).

For `Cc1cc(Nc2nc(Nc3cc(C)c(C4CCN(C(=O)CN5CCCCC5)CC4)cc3C)ncc2Cl)n[nH]1` [Compound 101, 1-(4-(4-(5-chloro-4-(5-methyl-1H-pyrazol-3-ylamino)pyrimidin-2-ylamino)-2,5-dimethylphenyl)piperidin-1-yl)-2-(piperidin-1-yl)ethanone], the IC50 worked out at 7 nM.

`Cc1cc(Nc2nc(Nc3cc(C)c(C4CCN(CC(N)=O)CC4)cc3C)ncc2Cl)n[nH]1` [Compound 37, 2-(4-(4-(5-chloro-4-(5-methyl-1H-pyrazol-3-ylamino)pyrimidin-2-ylamino)-2,5-dimethylphenyl)piperidin-1-yl)acetamide] registered an IC50 of 13 nM.

`Cc1cc(Nc2nc(Nc3cc(C)c(C4CCN(CCCC(=O)N5CCOCC5)CC4)cc3F)ncc2Cl)n[nH]1` [Compound 246, 4-(4-(4-(5-Chloro-4-(5-methyl-1H-pyrazol-3-ylamino)pyrimidin-2-ylamino)-5-fluoro-2-methylphenyl)piperidin-1-yl)-1-morpholinobutan-1-one] registered an IC50 of 58 nM.

As to `Cc1cc(Nc2nc(Nc3cc(C)c(C4CCN(C(=O)C5(O)CC5)CC4)cc3F)ncc2Cl)n[nH]1` [Compound 192, (4-(4-(5-chloro-4-(5-methyl-1H-pyrazol-3-ylamino)pyrimidin-2-ylamino)-5-fluoro-2-methylphenyl)piperidin-1-yl)(1-hydroxycyclopropyl)methanone], the IC50 came to 21 nM.

Molecule `Cc1cc(Nc2nc(Nc3cc(C)c(C4CCN(Cc5cnccn5)CC4)cc3F)ncc2Cl)n[nH]1` [Compound 315, 5-chloro-N2-(2-fluoro-5-methyl-4-(1-(pyrazin-2-ylmethyl)piperidin-4-yl)phenyl)-N4-(5-methyl-1H-pyrazol-3-yl)pyrimidine-2,4-diamine] showed an IC50 of 36 nM.

Molecule `CCN1CCC(c2cc(C)c(Nc3ncc(Cl)c(Nc4cc(C5CC5)[nH]n4)n3)cc2C)CC1` [Compound 205, 5-chloro-N4-(5-cyclopropyl-1H-pyrazol-3-yl)-N2-(4-(1-ethylpiperidin-4-yl)-2,5-dimethylphenyl)pyrimidine-2,4-diamine] registered an IC50 of 19 nM.

In turn, `Cc1cc(Nc2nc(Nc3cc(C4CCNCC4)c(F)cc3C)ncc2Cl)n[nH]1` [Compound 8, 5-chloro-N2-(4-fluoro-2-methyl-5-(piperidin-4-yl)phenyl)-N4-(5-methyl-1H-pyrazol-3-yl)pyrimidine-2,4-diamine] came in with a half-maximal inhibitory concentration (IC50) of 1930 nM.

In the case of `Cc1cc(Nc2nc(Nc3cc(C(F)(F)F)c(C4CCNCC4)cc3C)ncc2Cl)n[nH]1` [Compound 254, 5-chloro-N4-(5-methyl-1H-pyrazol-3-yl)-N2-(2-methyl-4-(piperidin-4-yl)-5-(trifluoromethyl)phenyl)pyrimidine-2,4-diamine], the IC50 was 70 nM.

In turn, `Cc1cc(Nc2nc(Nc3cc(C)c(C4CCN(C[C@H](O)C(F)(F)F)CC4)cc3C)ncc2C)n[nH]1` [Compound 179, (S)-3-(4-(2,5-dimethyl-4-(5-methyl-4-(5-methyl-1H-pyrazol-3-ylamino)pyrimidin-2-ylamino)phenyl)piperidin-1-yl)-1,1,1-trifluoropropan-2-ol] came in with an IC50 of 120 nM.

As for `CCNC1(C(=O)N2CCC(c3cc(F)c(Nc4ncc(Cl)c(Nc5cc(C)[nH]n5)n4)cc3C)CC2)CC1` [Compound 169, (4-(4-(5-chloro-4-(5-methyl-1H-pyrazol-3-ylamino)pyrimidin-2-ylamino)-5-fluoro-2-methylphenyl)piperidin-1-yl)(1-(ethylamino)cyclopropyl)methanone], inhibition was half-maximal at 4 nM (IC50).

Molecule `Cc1cc(Nc2nc(Nc3cc(Cl)c(C4CCN(C)CC4)cc3C)ncc2Cl)n[nH]1` [Compound 7, 5-chloro-N2-(5-chloro-2-methyl-4-(1-methylpiperidin-4-yl)phenyl)-N4-(5-methyl-1H-pyrazol-3-yl)pyrimidine-2,4-diamine] yielded an IC50 of 15 nM.

Consider `Cc1cc(Nc2nc(Nc3cc(C)c(C4CCN(C)C(C)C4)cc3F)ncc2Cl)n[nH]1` (stereo not shown) [Compound 275, 5-chloro-N2-(4-(1,2-dimethylpiperidin-4-yl)-2-fluoro-5-methylphenyl)-N4-(5-methyl-1H-pyrazol-3-yl)pyrimidine-2,4-diamine], for which the IC50 is 9 nM.

With `Cc1cc(Nc2nc(Nc3cc(C)c(C4CCS(=O)(=O)C4)cc3C)ncc2Cl)n[nH]1` (stereo not shown) [Compound 154, 5-Chloro-N^2-[4-(1,1-dioxo-tetrahydro-1λ^6-thiophen-3-yl)-2,5-dimethyl-phenyl]-N^4-(5-methyl-1H-pyrazol-3-yl)-pyrimidine-2,4-diamine], the IC50 came out at 12 nM.

For `Cc1cc(Nc2nc(Nc3cc(Cl)c(C4CCN(C(=O)CN5CCOCC5)CC4)cc3C)ncc2Cl)n[nH]1` [Compound 95, 1-(4-(2-chloro-4-(5-chloro-4-(5-methyl-1H-pyrazol-3-ylamino)pyrimidin-2-ylamino)-5-methylphenyl)piperidin-1-yl)-2-morpholinoethanone], 6 nM corresponded to half-maximal inhibition (IC50).

For `Cc1cc(Nc2nc(Nc3cc(C#N)c(C4CCN(C)CC4)cc3C)ncc2Cl)n[nH]1` [Compound 286, 5-(5-chloro-4-(5-methyl-1H-pyrazol-3-ylamino)pyrimidin-2-ylamino)-4-methyl-2-(1-methylpiperidin-4-yl)benzonitrile], the IC50 is 37 nM.

Consider `Cc1cc(Nc2nc(Nc3cc(C)c(C4CCN(C(=O)C5CCNCC5)CC4)cc3F)ncc2Cl)n[nH]1` [Compound 115, (4-(4-(5-chloro-4-(5-methyl-1H-pyrazol-3-ylamino)pyrimidin-2-ylamino)-5-fluoro-2-methylphenyl)piperidin-1-yl)(piperidin-4-yl)methanone], for which the IC50 came out at 1570 nM.

Molecule `Cc1cc(Nc2nc(Nc3cc(C)c(C4CCN(Cc5noc(C(C)C)n5)CC4)cc3C)ncc2Cl)n[nH]1` [Compound 305, 5-chloro-N2-(4-(1-((5-isopropyl-1,2,4-oxadiazol-3-yl)methyl)piperidin-4-yl)-2,5-dimethylphenyl)-N4-(5-methyl-1H-pyrazol-3-yl)pyrimidine-2,4-diamine] had an IC50 of 25 nM.

In turn, `CCc1cc(Nc2nc(Nc3cc(C)c(C4CCN(CC)CC4)cc3F)ncc2Cl)n[nH]1` [Compound 268, 5-chloro-N4-(5-ethyl-1H-pyrazol-3-yl)-N2-(4-(1-ethylpiperidin-4-yl)-2-fluoro-5-methylphenyl)pyrimidine-2,4-diamine] had an IC50 of 22 nM.

Turning to `Cc1cc(Nc2nc(Nc3cc(C)c([C@H]4CCN[C@H](C)C4)cc3F)ncc2Cl)n[nH]1` (relative stereo) [Compound 279, 5-chloro-N2-(2-fluoro-5-methyl-4-((trans)-2-methylpiperidin-4-yl)phenyl)-N4-(5-methyl-1H-pyrazol-3-yl)pyrimidine-2,4-diamine], half-maximal inhibition (IC50) was put at 64 nM.

The molecule `Cc1cc(Nc2nc(Nc3cc(C)c(C4CCNCC4)cc3C)ncc2Cl)n[nH]1` [Compound 256, 5-chloro-N2-(2,5-dimethyl-4-(piperidin-4-yl)phenyl)-N4-(5-methyl-1H-pyrazol-3-yl)pyrimidine-2,4-diamine] displayed an IC50 of 44 nM.

Regarding `CNCC(=O)N1CCC(c2cc(F)c(Nc3ncc(Cl)c(Nc4cc(C)[nH]n4)n3)cc2C)CC1` [Compound 80, 1-(4-(4-(5-chloro-4-(5-methyl-1H-pyrazol-3-ylamino)pyrimidin-2-ylamino)-5-fluoro-2-methylphenyl)piperidin-1-yl)-2-(methylamino)ethanone], the IC50 was 103 nM.

On to `Cc1cc(Nc2nc(Nc3cc(C)c(C4CCN(C(=O)OC(C)C)CC4)cc3F)ncc2Cl)n[nH]1` [Compound 68, isopropyl 4-(4-(5-chloro-4-(5-methyl-1H-pyrazol-3-ylamino)pyrimidin-2-ylamino)-5-fluoro-2-methylphenyl)piperidine-1-carboxylate], for which the half-maximal inhibitory concentration (IC50) came to 80 nM.
